Source: patent US20080312301A1, “Substituted N-Benzo[D]Isoxazol-3-Yl-Amine Compounds as Inhibitors of Mglur5, Serotonin (5-Ht) and Noradrenaline Receptors, and Uses Thereof” (Gruenenthal GmbH, priority 2005, published 2008)

Tests used:
[1] = target: T1, 5-HT uptake (serotonin reuptake) (Rattus norvegicus, UniProt P31652); experiment: 5HT uptake inhibition in rat brain synaptosomes (medulla and pons), [3H]-5-HT; format: biochemical; settings: for inhibition at 10 µM: conc. 10 μM
T1 construct: from tissue; host or cells: rat medulla and pons synaptosomes (P2 fraction)
T1 sequence (P31652 whole entry): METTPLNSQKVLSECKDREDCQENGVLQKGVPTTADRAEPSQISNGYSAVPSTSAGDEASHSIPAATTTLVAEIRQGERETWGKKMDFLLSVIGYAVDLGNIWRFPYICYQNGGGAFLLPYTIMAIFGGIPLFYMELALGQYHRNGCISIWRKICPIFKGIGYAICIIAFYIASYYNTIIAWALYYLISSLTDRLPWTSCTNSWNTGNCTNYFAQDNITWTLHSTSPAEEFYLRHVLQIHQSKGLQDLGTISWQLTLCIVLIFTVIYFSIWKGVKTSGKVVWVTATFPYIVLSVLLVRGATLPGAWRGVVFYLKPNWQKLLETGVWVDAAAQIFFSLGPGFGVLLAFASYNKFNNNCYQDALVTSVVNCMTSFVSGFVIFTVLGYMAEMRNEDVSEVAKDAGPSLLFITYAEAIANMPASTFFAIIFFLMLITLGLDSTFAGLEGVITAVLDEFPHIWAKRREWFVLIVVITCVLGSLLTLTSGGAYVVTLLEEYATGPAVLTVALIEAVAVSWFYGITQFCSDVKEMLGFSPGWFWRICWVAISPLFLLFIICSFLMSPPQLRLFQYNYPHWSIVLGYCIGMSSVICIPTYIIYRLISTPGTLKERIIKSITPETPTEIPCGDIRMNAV
Text: (§1) I. Method for Determining the Noradrenaline and 5HT Uptake Inhibition:
(§2) For in vitro studies, synaptosomes were freshly isolated from rat brain areas as described in the publication “The isolation of nerve endings from brain” by E. G. Gray and V. P. Whittaker, J. Anatomy 96, pages 79-88, 1962. The corresponding literature description is introduced hereby as reference and forms part of the disclosure.
(§3) The tissue (hypothalamus for determining the noradrenaline uptake inhibition and medulla and pons for determining the 5HT uptake inhibition) was homogenized in ice-cold 0.32 M sucrose (100 mg of tissue/1 ml) in a glass homogenizer with Teflon pestle using five full up and down strokes at 840 revolutions/minute. The homogenate was centrifuged at 1000 g and at 4° C. for 10 minutes. After subsequent centrifugation at 17 000 g for 55 minutes, the synaptosomes (P2 fraction) are obtained and were resuspended in 0.32 M […] (0.5 ml/100 mg of the original weight).
(§4) The respective uptake was measured in a 96-well microtiter plate. The volume was 250 μl and incubation took place at room temperature (approx. 20-25° C.) under an O2 atmosphere.
(§5) The incubation time was 7.5 minutes for [^3H]-NA and 5 minutes for [^3H]-5-HT. The 96 samples were then filtered through a Unifilter GF/B® microtiter plate (Packard) and washed with […] of incubated buffer using a “Brabdel MPXRI-96T Cell Harvester”. The Unifilter GF/B plate was dried at 55° C. for 1 h. The plate was then sealed with a Back Seal® (Packard) and 35 μl of scintillation fluid were added per well (Ultima Gold®, Packard). After sealing with a top Seal® (Packard), the radioactivity was determined, after equilibrium had been reached (about 5 h), in a “Trilux 1450 Microbeta” (Wallac).
(§6) The amount of protein employed in the above determination corresponded to the value disclosed in the literature, as described for example in “Protein measurement with the folin phenol reagent”, Lowry et al., J. Biol. Chem., 193, 265-275, 1951. A detailed description of the method can also be found in the literature, for example from M. Ch. Frink, H.-H. Hennies, W. Engelberger, M. Haurand and B. Wilffert (1996) Arzneim.-Forsch./Drug Res. 46 (III), 11, 1029-1036. The corresponding literature descriptions are hereby introduced as reference and form part of the disclosure.

[2] = target: T2, mGluR5 receptor (Sus scrofa, UniProt I3LUI7); experiment: Affinity for the mGluR5 receptor: displacement of 3[H]-MPEP binding in pig brain homogenate; settings: 10 μM compound, 5 nM 3[H]-MPEP
T2 construct: 450 μg of protein from brain homogenate are incubated with 5 nM^3[H]-MPEP; from tissue; host or cells: pig brain hemispheres without medulla, cerebellum and pons
T2 sequence (I3LUI7 19-1212): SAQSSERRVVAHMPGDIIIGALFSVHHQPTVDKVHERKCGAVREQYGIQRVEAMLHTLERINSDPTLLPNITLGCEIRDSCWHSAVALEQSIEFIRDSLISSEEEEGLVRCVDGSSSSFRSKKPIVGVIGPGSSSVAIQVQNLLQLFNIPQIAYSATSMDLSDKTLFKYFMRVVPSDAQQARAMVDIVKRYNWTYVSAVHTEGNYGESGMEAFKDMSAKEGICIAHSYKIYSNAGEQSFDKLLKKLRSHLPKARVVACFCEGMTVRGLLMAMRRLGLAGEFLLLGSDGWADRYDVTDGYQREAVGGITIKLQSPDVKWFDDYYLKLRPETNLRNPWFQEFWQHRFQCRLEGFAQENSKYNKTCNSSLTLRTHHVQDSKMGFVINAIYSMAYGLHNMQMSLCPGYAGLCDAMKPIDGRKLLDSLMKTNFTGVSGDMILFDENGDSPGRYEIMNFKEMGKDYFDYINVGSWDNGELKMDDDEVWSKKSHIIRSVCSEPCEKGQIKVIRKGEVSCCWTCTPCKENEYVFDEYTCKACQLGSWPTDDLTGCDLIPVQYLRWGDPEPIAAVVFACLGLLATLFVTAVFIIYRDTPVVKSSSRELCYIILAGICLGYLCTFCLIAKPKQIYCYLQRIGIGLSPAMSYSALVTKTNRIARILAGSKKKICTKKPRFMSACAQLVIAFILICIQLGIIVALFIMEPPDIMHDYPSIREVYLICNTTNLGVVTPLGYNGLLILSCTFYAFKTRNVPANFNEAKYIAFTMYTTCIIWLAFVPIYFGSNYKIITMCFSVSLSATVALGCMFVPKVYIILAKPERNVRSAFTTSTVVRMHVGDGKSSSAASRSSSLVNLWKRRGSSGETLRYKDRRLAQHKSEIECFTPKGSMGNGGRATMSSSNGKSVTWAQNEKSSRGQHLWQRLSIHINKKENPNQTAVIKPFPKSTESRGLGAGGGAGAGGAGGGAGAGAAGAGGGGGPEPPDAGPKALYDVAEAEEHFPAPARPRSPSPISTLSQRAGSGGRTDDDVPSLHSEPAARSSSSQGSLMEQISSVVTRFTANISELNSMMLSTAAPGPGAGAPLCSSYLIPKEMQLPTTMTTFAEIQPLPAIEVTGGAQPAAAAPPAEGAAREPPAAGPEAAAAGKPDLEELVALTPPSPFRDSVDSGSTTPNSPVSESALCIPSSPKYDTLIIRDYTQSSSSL
Experimental: II. Method for Determining the Affinity for the mGluR5 Receptor
In each case 450 μg of protein from brain homogenate are incubated with 5 nM^3[H]-MPEP (Tocris, order No. R1212) (MPEP=2-methyl-6-[…]) and the compounds to be investigated (10 μM in the assay) in buffer (as above) in 250 μl incubation mixtures in 96-well microtiter plates at room temperature for 60 min.
The filter plates were then dried at 55° C. for 60 min.

[3] = target: T3, NA transporter (Rattus norvegicus, UniProt Q63380); experiment: Noradrenaline (NA) uptake inhibition in rat brain synaptosomes (hypothalamus), [3H]-NA; format: biochemical; settings: for inhibition at 10 µM: conc. 10 μM
T3 construct: from tissue; host or cells: rat hypothalamus synaptosomes (P2 fraction)
T3 sequence (Q63380 1-617): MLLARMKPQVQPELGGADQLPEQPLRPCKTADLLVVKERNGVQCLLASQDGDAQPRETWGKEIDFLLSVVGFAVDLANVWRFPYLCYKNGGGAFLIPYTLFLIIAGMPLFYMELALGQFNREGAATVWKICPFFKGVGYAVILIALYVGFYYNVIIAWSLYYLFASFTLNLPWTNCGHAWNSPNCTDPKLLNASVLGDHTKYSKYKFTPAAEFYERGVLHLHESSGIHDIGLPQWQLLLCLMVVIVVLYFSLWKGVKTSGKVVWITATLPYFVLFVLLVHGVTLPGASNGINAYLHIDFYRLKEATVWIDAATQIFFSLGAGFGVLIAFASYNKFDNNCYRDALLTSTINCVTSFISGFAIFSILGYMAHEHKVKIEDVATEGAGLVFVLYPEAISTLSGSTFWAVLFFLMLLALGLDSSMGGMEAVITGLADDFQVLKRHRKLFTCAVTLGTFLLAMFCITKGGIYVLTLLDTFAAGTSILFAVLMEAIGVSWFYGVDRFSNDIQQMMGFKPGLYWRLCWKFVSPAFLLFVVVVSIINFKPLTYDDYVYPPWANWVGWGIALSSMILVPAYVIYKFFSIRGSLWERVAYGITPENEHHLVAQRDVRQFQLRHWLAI
Text: as §1, §2, §3, §4, §5
The following characteristic data were found for the NA transporter:
as §6

Row | inhibition at 10 µM [1] [%] | Structure (SMILES) | also measured
1 | 82 | O=C(Nc1noc2ccc(F)cc12)c1ccccc1C(F)(F)F [Example 26, N-(5-fluorobenzo[d]isoxazol-3-yl)-2-trifluoromethylbenzamide] | –
2 | – | O=C(Nc1noc2cc(F)ccc12)c1cccs1 [Example 17, thiophene-2-(6-fluorobenzo[d]isoxazol-3-yl)carboxamide] | 5 HT uptake inhibition [%] conc. 10 μM [1]: 77%
3 | 84 | O=C(Nc1noc2cccc(OCC(F)(F)F)c12)c1ccccc1Br [Example 36, 2-bromo-N-[4-(2,2,2-trifluoroethoxy)benzo[d]isoxazol-3-yl]benzamide] | inhibition at 10 µM [2]: 30.3%
4 | – | CN(C)c1cccc2onc(NC(=O)C3CCCCC3)c12 [Example 73, cyclohexane-(4-dimethylaminobenzo[d]isoxazol-3-yl)carboxamide] | NA uptake inhibition [%] conc. 10 μM [3]: 70%; mGluR5 receptor inhibition of the 3[H]-MPEP binding in % (10 μM) [2]: 30.05%
5 | 77 | CC(C)(C)c1ccc(C(=O)Nc2noc3cccc(OCC(F)(F)F)c23)cc1 [Example 38, 4-tert-butyl-N-[4-(2,2,2-trifluoroethoxy)benzo[d]isoxazol-3-yl]benzamide] | –
6 | 79 | COc1ccccc1C(=O)Nc1noc2cc(Br)ccc12 [Example 22, N-(6-bromobenzo[d]isoxazol-3-yl)-2-methoxybenzamide] | –
7 | – | O=C(Nc1noc2cc(Br)ccc12)C1C2CC3CC(C2)CC1C3 (stereo not shown) [Example 24, adamantane-2-(6-bromobenzo[d]isoxazol-3-yl)carboxamide] | 5 HT uptake inhibition [%] conc. 10 μM [1]: 79%
8 | – | O=C(Nc1noc2cc(Br)ccc12)c1ccc(F)c(F)c1 [Example 49, N-(6-bromobenzo[d]isoxazol-3-yl)-3,4-difluorobenzamide] | inhibition at 10 µM [3]: 65%; inhibition at 10 µM [2]: 36.9%
9 | 82 | COc1ccccc1C(=O)Nc1noc2cccc(OCC(F)(F)F)c12 [Example 39, 2-methoxy-N-[4-(2,2,2-trifluoroethoxy)benzo[d]isoxazol-3-yl]benzamide] | inhibition at 10 µM [2]: 30.5%
10 | 86 | O=C(Nc1noc2ccccc12)c1cccc(F)c1F [Example 15, N-benzo[d]isoxazol-3-yl-2,3-difluorobenzamide] | –
11 | 69 | O=C(Nc1noc2ccccc12)c1ccc(Cl)c(Cl)c1 [Example 14, N-benzo[d]isoxazol-3-yl-3,4-dichlorobenzamide] | –
12 | 81 | CC(C)(C)c1ccc(C(=O)Nc2noc3cc(Br)ccc23)cc1 [Example 21, N-(6-bromobenzo[d]isoxazol-3-yl)-4-tert-butylbenzamide] | –
13 | 78 | COc1cccc2onc(NC(=O)c3cc(F)cc(F)c3)c12 [Example 34, 3,5-difluoro-N-(4-methoxybenzo[d]isoxazol-3-yl)benzamide] | –
14 | – | COc1cccc2onc(NC(=O)c3cc(C(F)(F)F)cc(C(F)(F)F)c3)c12 [Example 33, N-(4-methoxybenzo[d]isoxazol-3-yl)-3,5-bistrifluoromethyl benzamide] | 5 HT uptake inhibition [%] conc. 10 μM [1]: 85%
15 | 89 | O=C(Nc1noc2ccc(F)cc12)c1ccc(Cl)c(Cl)c1 [Example 27, 3,4-dichloro-N-(5-fluorobenzo[d]isoxazol-3-yl)benzamide] | –
16 | 86 | CN(C)c1cccc2onc(NC(=O)c3cc(C(F)(F)F)cc(C(F)(F)F)c3)c12 [Example 35, N-(4-dimethylaminobenzo[d]isoxazol-3-yl)-3,5-bistrifluoromethylbenzamide] | –
17 | – | O=C(Nc1noc2cccc(OCC(F)(F)F)c12)c1ccc(F)c(F)c1 [Example 82, 3,4-difluoro-N-[4-(2,2,2-trifluoroethoxy)benzo[d]isoxazol-3-yl]benzamide] | inhibition at 10 µM [3]: 68%; inhibition at 10 µM [2]: 42%
18 | 83 | O=C(Nc1noc2ccc(Br)cc12)c1cc(C(F)(F)F)ccc1F [Example 29, N-(5-bromobenzo[d]isoxazol-3-yl)-2-fluoro-5-trifluoromethylbenzamide] | –

Row | inhibition at 10 µM [1] [%] | Structure (SMILES) | also measured
19 | – | O=C(Nc1noc2cccc(OCC(F)(F)F)c12)c1ccc(F)cc1C(F)(F)F [Example 77, 4-fluoro-N-[4-(2,2,2-trifluoroethoxy)benzo[d]isoxazol-3-yl]-2-trifluoromethyl-benzamide] | inhibition at 10 µM [3]: 70%; inhibition at 10 µM [2]: 38%
20 | 72 | CN(C)c1cccc2onc(NC(=O)c3cccc(F)c3)c12 [Example 16, N-(4-dimethylaminobenzo[d]isoxazol-3-yl)-3-fluorobenzamide] | –
21 | 90 | O=C(Nc1noc2cccc(OCC(F)(F)F)c12)c1cccc(Cl)c1 [Example 37, 3-chloro-N-[4-(2,2,2-trifluoroethoxy)benzo[d]isoxazol-3-yl]benzamide] | –
22 | – | O=C(Nc1noc2cc(Br)ccc12)c1ccccc1C(F)(F)F [Example 23, N-(6-bromobenzo[d]isoxazol-3-yl)-2-trifluoromethyl benzamide] | 5 HT uptake inhibition [%] conc. 10 μM [1]: 86%
23 | 89 | Cc1ccc2onc(NC(=O)c3cccc(F)c3)c2c1 [Example 32, 3-fluoro-N-(5-methylbenzo[d]isoxazol-3-yl)benzamide] | inhibition at 10 µM [2]: 40.1%
24 | 77 | O=C(Nc1noc2cc(Cl)ccc12)c1cccc(C(F)(F)F)c1F [Example 19, N-(6-chlorobenzo[d]isoxazol-3-yl)-2-fluoro-3-trifluoromethylbenzamide] | inhibition at 10 µM [3]: 63%
25 | 84 | O=C(Nc1noc2ccccc12)c1ccccc1C(F)(F)F [Example 13, N-benzo[d]isoxazol-3-yl-2-trifluoromethylbenzamide] | –
26 | 77 | COc1cccc(C(=O)Nc2noc3cc(Cl)ccc23)c1 [Example 20, N-(6-chlorobenzo[d]isoxazol-3-yl)-3-methoxybenzamide] | –
27 | – | O=C(Nc1noc2cccc(OCC(F)(F)F)c12)c1ccc2ccccc2c1 [Example 81, naphthalene-2-[4-(2,2,2-trifluoroethoxy)benzo[d]isoxazol-3-yl]carboxamide] | NA uptake inhibition [%] conc. 10 μM [3]: 65%
28 | – | CN(C)c1cccc2onc(NC(=O)c3ccc(F)c(F)c3F)c12 [Example 65, N-(4-dimethylaminobenzo[d]isoxazol-3-yl)-2,3,4-trifluorobenzamide] | inhibition at 10 µM [3]: 68%
29 | 70 | CCC(C)C(=O)Nc1noc2cc(F)ccc12 (stereo not shown) [Example 18, N-(6-fluorobenzo[d]isoxazol-3-yl)-2-methylbutyramide] | –
30 | 69 | Cc1ccc2onc(NC(=O)c3ccccc3C(F)(F)F)c2c1 [Example 31, N-(5-methylbenzo[d]isoxazol-3-yl)-2-trifluoromethylbenzamide] | –
31 | 91 | Cc1ccccc1C(=O)Nc1noc2ccc(F)cc12 [Example 28, N-(5-fluorobenzo[d]isoxazol-3-yl)-2-methylbenzamide] | inhibition at 10 µM [2]: 35%
32 | – | O=C(Nc1noc2cc(Br)ccc12)c1cc(F)cc(C(F)(F)F)c1 [Example 46, N-(6-bromobenzo[d]isoxazol-3-yl)-3-fluoro-5-trifluoromethylbenzamide] | inhibition at 10 µM [3]: 65%
33 | – | CN(C)c1cccc2onc(NC(=O)c3cccc(C(F)(F)F)c3F)c12 [Example 70, N-(4-dimethylaminobenzo[d]isoxazol-3-yl)-2-fluoro-3-trifluoromethylbenzamide] | inhibition at 10 µM [3]: 66%
34 | 86 | CCC(C)C(=O)Nc1noc2cc(Br)ccc12 (stereo not shown) [Example 25, N-(6-bromobenzo[d]isoxazol-3-yl)-2-methylbutyramide] | –
35 | 79 | O=C(Nc1noc2ccc(Br)cc12)c1ccc(F)cc1F [Example 30, N-(5-bromobenzo[d]isoxazol-3-yl)-2,4-difluorobenzamide] | inhibition at 10 µM [2]: 45.2%
36 | – | O=C(Nc1noc2cc(F)ccc12)c1cc(Cl)cc(Cl)c1 [Example 9, 3,5-dichloro-N-(6-fluorobenzo[d]isoxazol-3-yl)benzamide] | inhibition at 10 µM [3]: 67%
